Several values for one entry are separate records, joined by “and”; a condition that tells them apart may be missing. Equal values may be shown once.
Tests used:
[1] = biological target: T1, thrombin receptor (PAR-1) (Homo sapiens, UniProt P25116); test: FLIPR-based calcium-flux assay with human smooth muscle cells (Har peptide agonist); assay type: cell-based; conditions: HSMC; 30 nM Har (PAR1) peptide agonist; 80-min drug incubation; multiple values = individual measurements
T1 construct: Human aortic smooth muscle cells (HSMC) were purchased from Cascade Biologics; host or cells: human aortic smooth muscle cells (HSMC)
T1 sequence (P25116 22-425): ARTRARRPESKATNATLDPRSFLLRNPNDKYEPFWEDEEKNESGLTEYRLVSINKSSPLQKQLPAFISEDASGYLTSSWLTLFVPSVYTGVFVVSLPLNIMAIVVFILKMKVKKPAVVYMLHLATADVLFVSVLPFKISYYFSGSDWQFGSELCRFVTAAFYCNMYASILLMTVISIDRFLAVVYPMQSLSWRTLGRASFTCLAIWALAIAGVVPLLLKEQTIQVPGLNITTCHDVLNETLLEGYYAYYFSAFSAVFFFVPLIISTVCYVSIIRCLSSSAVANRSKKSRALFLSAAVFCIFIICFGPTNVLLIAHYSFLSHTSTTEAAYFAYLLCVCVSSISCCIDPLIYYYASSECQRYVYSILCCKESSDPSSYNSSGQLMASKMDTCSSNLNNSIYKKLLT
Experimental: Human aortic smooth muscle cells (HSMC) were purchased from Cascade Biologics (Portland, Oreg.) and cultured in M-231 containing smooth muscle cell growth supplement and 1× Antibiotic-Antimycotic.
To determine agonist concentration for compound testing: On the day prior to the assay, 100 μL of cells (2×10^5/mL) were seeded in clear, flat-bottom black-wall, tissue culture treated polystyrene 96-well plates and incubated at 37° C., 5% CO2. On the day of the assay, 50 μL of complete dye loading solution (FLIPR Calcium 3 Kit, Molecular Devices) was added to each well containing 100 μL of culture media. The cells were incubated for 30-45 min at 37° C., in 5% CO2 before initiating the assay on the FLIPR. The agonist effect of PAR1 peptide (S-(p-F-Phe)-Har-L-Har-KY-NH2; Har=homoarginine; referred to herein as “Har” peptide) was tested and the EC50 was determined. The EC60-70 dose was used (30 nM) for compound testing.
Compound testing: On the day prior to the assay, 90 μL of cells (2.2×10^5/mL) were seeded in clear, flat-bottom black-wall, tissue culture treated polystyrene 96-well plates and incubated at 37° C., 5% CO2. On the day of the assay, the test compounds were prepared at 10× in 3% DMSO Hanks buffer and 10 μL was added to each well (final DMSO concentration of 0.3%). The cells were incubated 20 min at 37° C., 5% CO2. Culture medium containing testing compounds was dumped and the cells were washed four times with DPBS containing 0.1% of BSA and re-fed with 80 μL of growth medium. 70 μL of BD (fluorescent) dye was loaded to the cells and incubated 45 min at 37° C. incubator. The plates were equilibrated to room temperature for 15 min. 4× PAR1 peptide (30 nM final concentration) agonist plate and the cell plate were placed in FLIPR's assay chamber. 50 μL agonist was added to the cells and data was recorded for 5 min. Raw fluorescence data was exported for each well and tabulated versus time within an ASCII file. Data was then imported into Excel® and the peak response over basal level was determined. The percent inhibition for each test compound was calculated by the changes of fluorescent density as a % inhibition of the control Har peptide response to obtain an IC50.
(§1) Representative compounds of the present invention were tested according to the procedure described in Biological Example 1 above, with results in Table 8 below. In Table 8 below, where multiple values are listed for a particular compound, said numbers represent individual measurements (tests) for said compound.

washed platelets [2] = test: Har peptide-induced platelet aggregation in washed platelets; assay type: cell-based; conditions: Homo sapiens
Experimental: (§2) Platelet aggregation studies were performed according to the method of Bednar et al. (Bednar, B., Condra, C., Gould, R. J., and Connolly, T. M., Thromb. Res., 77:453-463 (1995)). Platelet-rich plasma (PRP) concentrates prepared from healthy volunteers who were aspirin free for at least 7 days by venipuncture using ACD-A as anticoagulant was purchased from Biological Specialties, Inc. (Colmar, Pa.). PRP was centrifuged at 730 g for 15 min. The platelet pellet was washed twice in CGS buffer (13 mM sodium citrate, 30 mM glucose, 120 mM NaCl, pH 6.5) containing 1 U/ml apyrase (grade V, Sigma-Aldrich, St. Louis, Mo.), 1 mM EGTA, and re-suspended in Tyrode's buffer (140 mM NaCl, 2.7 mM KCl, 12 mM NaHCO3, 0.76 mM Na2HPO4, 5.5 mM dextrose, 5.0 mM HEPES, 0.2% BSA, pH 7.4). The platelets were diluted to 3×10^8 platelets/ml and kept >45 min at 37° C. before use. 105 μl of washed platelets, 2 mM CaCl2 and […] of fibrinogen (for PAR-1 peptide-induced platelet aggregation only) were added to a 96-well microliter plate. Platelet aggregation was initiated by the addition of serial concentrations of Har peptide or thrombin (Alpha; American Diagnostica, Cat. # 470HT, 2,500 NIH Units/mg). Buffer was added to one set of control wells. The assay plate was stirred constantly and intermittently placed in a microplate reader (Softmax, Molecular Devices, Menlo Park, Calif.) to read optical density (650 nm) at 0 and 5 minutes after the addition of the compound solutions. Aggregation was calculated as the decrease in optical density between the time 0- and 5-min measurements and expressed as % of aggregation.
(§3) For the inhibition assay, platelet aggregation measurements were conducted as described, with the additional step of test compound addition. Compounds were prepared in 100% DMSO and stored. On the day of the experiment, the compounds were diluted in the Tyrode's buffer containing 3% of DMSO as a 10× working solution. 15 μl of test compound solutions were added to 105 μl of platelets 5 min prior to CaCl2 and fibrinogen additions. Platelet aggregation was initiated by the addition of agonist shown to achieve 60-70% aggregation. Antagonist potency was estimated as a % inhibition of the control Har peptide or thrombin response to obtain an IC50.
as §1, with “2” for “1”, “9” for “8”, “9” for “8 below,”

washed platelets [3] = test: Thrombin-induced platelet aggregation in washed platelets; assay type: cell-based, human; conditions: for IC50: Homo sapiens, Platelet
Experimental: as §2, §3
as §1, with “2” for “1”, “9” for “8”, “9” for “8 below,”

[4] = tested on: platelets in platelet-rich plasma; test: Har peptide-induced platelet aggregation in platelet-rich plasma; assay type: cell-based, human; conditions: for IC50: multiple values = individual measurements
Experimental: (§4) The procedure for this assay is similar to that described in Biological Example 2, above. Briefly, platelet aggregation studies were performed according to the method of Bednar et al. (Bednar, B., Condra, C., Gould, R. J., and Connolly, T. M., Thromb. Res., 77:453-463 (1995)). Platelet-rich plasma (PRP) concentrates prepared from healthy volunteers who were aspirin free for at least 7 days by venipuncture using EDTA as anticoagulant was purchased from Biological Specialties, Inc. (Colmar, Pa.). PPP (platelet-poor-plasma) was obtained by centrifugation of PRP at Max (3,000 rpms) for 15 min at room temperature. PRP was diluted to yield platelet count of 300×10^3 platelets/μL with PPP. For thrombin induced platelet aggregation: 118 μL of 500 mM GPRP-NH2 was added to 12 mL of 300×10^3 platelets before using (to clean the fibrinogen in the plasma.) GPRP was added just before the experiment. 15 μL of test compound solutions were added to 120 μL of platelets 5 min prior the agonist additions. Platelet aggregation was initiated by the addition of agonist shown to achieve 60-70% aggregation. Antagonist potency was estimated as a % inhibition of the control Har peptide or thrombin response to obtain an IC50.
(§5) Where multiple values are listed for a particular compound, said numbers represent individual measurements (tests) for said compound.

[5] = tested on: platelets in platelet-rich plasma; test: Thrombin-induced platelet aggregation in platelet-rich plasma; assay type: cell-based, human; conditions: for IC50: multiple values = individual measurements
Experimental: as §4, §5

Row | IC50 [1] | IC50 (washed platelets [2]) | IC50 (washed platelets [3]) | IC50 ([4]; Homo sapiens, Platelet) | IC50 [5] | IC50 ([5]; Homo sapiens, Platelet) | Washed platelet aggregation IC50 (μM) Thrombin (washed platelets [3]) | IC50 [4] | Compound | inhibition at 10 µM ([4]; Homo sapiens, 10 μM compound) | inhibition at 10 µM ([5]; Homo sapiens, 10 μM compound)
1 | 0.019 µM and 0.059 µM and 0.023 µM and 0.038 µM | 0.068 µM | 0.107 µM | 390 nM | 690 nM and 2430 nM |  |  |  | CC(C)(C)c1cc(C(=O)CN2Cc3cc4c(cc3C2=N)OCc2ncccc2CO4)cc(C(C)(C)C)c1O [Compound 49] |  | 
2 | 0.025 µM | 0.172 µM | 0.282 µM |  |  |  |  |  | COc1c(N2CCOCC2)cc(C(=O)CN2Cc3cc4c(cc3C2=N)OCc2ncccc2CO4)cc1C(C)(C)C [Compound 52] |  | 
3 | 0.103 µM | 0.214 µM | 0.304 µM | 749 nM |  | 803 nM |  |  | COc1c(N2CCOCC2)cc(C(=O)CN2Cc3cc4c(cc3C2=N)OCc2nccnc2CO4)cc1C(C)(C)C [Compound 58] |  | 
4 | 0.371 µM | 1.25 µM | 2.11 µM | 6120 nM |  |  |  |  | COc1c(N2CCOCC2)cc(C(=O)CN2Cc3cc4c(cc3C2=N)OCc2cc3c(cc2CO4)OCO3)cc1C(C)(C)C [Compound 59] |  | 
5 | 0.047 µM and 0.057 µM | 0.446 µM | 0.813 µM | 6710 nM | 2430 nM and > 10000 nM |  |  |  | COC(=O)c1ccc2c(c1)COc1cc3c(cc1OC2)CN(CC(=O)c1cc(N2CCOCC2)c(OC)c(C(C)(C)C)c1)C3=N [Compound 73] |  | 
6 | 0.15 µM and 0.16 µM | 0.779 µM |  | > 10000 nM | > 10000 nM | > 10000 nM | variable |  | Cc1sc(C)c2c1COc1cc3c(cc1OC2)C(=N)N(CC(=O)c1cc(C(C)(C)C)c(O)c(C(C)(C)C)c1)C3 [Compound 74] |  | 
7 | 0.39 µM and 0.46 µM | 0.183 µM | > 10 µM | 3040 nM | 2190 nM and > 10000 nM |  |  |  | COc1c(C(C)(C)C)cc(C(=O)CN2Cc3cc4c(cc3C2=N)OCc2ncccc2CO4)cc1C(C)(C)C [Compound 75] |  | 
8 | 0.58 µM | 0.309 µM | > 10 µM | 2060 nM | > 10000 nM | > 10000 nM |  |  | COc1c(C(C)(C)C)cc(C(=O)CN2Cc3cc4c(cc3C2=N)OCc2cccnc2CO4)cc1C(C)(C)C [Compound 76] |  | 
9 | 0.53 µM and 0.36 µM |  |  |  | > 10000 nM | > 10000 nM |  |  | COc1c(N2CCOCC2)cc(C(=O)CN2Cc3cc4c(cc3C2=N)OCC(F)(F)CO4)cc1C(C)(C)C [Compound 92] | 24% | 
10 | 0.27 µM and 0.13 µM |  |  | 2080 nM | > 10000 nM | > 10000 nM |  | 3800 nM | CC(C)(C)c1cc(C(=O)CN2Cc3cc4c(cc3C2=N)OCC(F)(F)CO4)cc(C(C)(C)C)c1O [Compound 93] |  | 
11 | 0.031 µM and 0.015 µM |  |  | 1570 nM | 3250 nM | 3230 nM |  | 2300 nM | CC(C)(C)c1cc(C(=O)CN2Cc3cc4c(c(F)c3C2=N)OCc2ccccc2CO4)cc(C(C)(C)C)c1O [Compound 96] |  | 
12 | 0.05 µM and 0.1 µM |  |  | 1300 nM |  | 2190 nM |  |  | COc1c(N2CCOCC2)cc(C(=O)CN2Cc3cc4c(cc3C2=N)OC/C=C\CO4)cc1C(C)(C)C [Compound 97] |  | 
13 | 0.27 µM and > 1 µM |  |  | > 10000 nM |  | > 10000 nM |  |  | COc1c(N2CCOCC2)cc(C(=O)CN2Cc3cc4c(cc3C2=N)OCc2cc(C)c(C)cc2CO4)cc1C(C)(C)C [Compound 98] |  | 
14 | 0.092 µM and 0.22 µM |  |  | > 10000 nM |  |  |  |  | Cc1cc2c(cc1C)COc1cc3c(cc1OC2)CN(CC(=O)c1cc(C(C)(C)C)c(O)c(C(C)(C)C)c1)C3=N [Compound 99] |  | 23%
15 | 0.022 µM and 0.027 µM |  |  | 1610 nM |  | 1920 nM |  |  | CC(C)(C)c1cc(C(=O)CN2Cc3cc4c(cc3C2=N)OC/C=C\CO4)cc(C(C)(C)C)c1O [Compound 100, (Z)-1-(3,5-di-tert-butyl-4-hydroxyphenyl)-2-(8-imino-2H-[1,4]-dioxocino[2,3-f]isoindol-9(5H,8H,10H)-yl)ethanone] |  | 

— US8673890B2, “2,3-dihydro-1H-isoindol-1-imine derivatives useful as thrombin PAR-1 receptor antagonist” (Janssen Pharmaceutica NV, priority 2009, dated 2014)
